Results published in publication PMC12321279, “Novel 4,5‐Dihydrothiazole‐Phenylpiperazine Derivatives: Synthesis, Docking Studies and Pharmacological Evaluation as Serotonergic Agents” (Chemmedchem, 2025).
pKi: −log10 of the molar value. Where two headings read alike, the source gives them in different places.

What was measured:
larval zebrafish = experiment: Basic locomotor activity of larval zebrafish; format: in vivo, zebrafish (Danio rerio); conditions: 5 dpf larvae, 20 h incubation at maximum‐tolerated concentration (Figure 12), 30 min tracking
Protocol: All experiments were conducted on zebrafish (Danio rerio) larvae up to 5 days post fertilization (dpf), therefore, in accordance with current European legislation, ethical permission to conduct assays was not required. However, housing and experimental procedures were performed in compliance with the National Institute of Health Guidelines for the Care and Use of Laboratory Animals and the European Union Directive of 22 September 2010 (2010/63/EU) on protecting animals used for scientific purposes. All efforts were taken to minimize larvae stress and suffering. Larvae were euthanized with an overdose of tricaine ([…]). The zebrafish facility of Experimental Medicine Centre (Medical University of Lublin, Poland) provided wild‐type zebrafish embryos of the AB strain. Embryos as well as larvae were maintained in Petri dishes filled with E3 embryo medium, i.e., fish water (1.5 mM HEPES, pH 7.6; 17.4 mM NaCl; 0.21 mM KCl; 0.12 mM MgSO4; and 0.18 mM Ca (NO3)2). These were maintained under standard, generally accepted housing conditions (temperature 28.5 ± 1 °C, light to dark cycle 14 h to 10 h). Plastic transfer Pasteur pipettes were used to replace medium each day. Before the respective behavioral tests were conducted, larvae at 4 dpf were incubated for 20 h in different arylpiperazine derivatives solutions of maximum‐tolerated concentrations (MCTs), determined during toxicological screening.^[ [30], [32] ^] The control group was exposed to equivalent concentration of DMSO solvent. All locomotor tracking tests were performed at the same period of the day. Basic locomotor activity was measured using an automated tracking device, Daniovision by Noldus, and the total distance traveled was quantified using EthoVision XT software of the same company (Wageningen, the Netherlands) over a 30 min long observation period. Larvae were placed in 48‐well plates, individually (single larva per well), using a plastic transfer pipette. The PTZ‐induced hyperlocomotion (acute seizure assay) was assessed in 5 dpf larval zebrafish (after 20 h incubation with tested derivatives at MCTs). After the incubation, larvae were exposed to an acute dose of PTZ (20 mM). Larval locomotor activity after exposure to PTZ was tracked (Daniovision by Noldus) over 30 mins, after 5‐mins of habituation. Additionally, larval locomotor activity was assessed in response to alternate lighting conditions (lights ON vs. lights OFF). Light intensity under illumination was 100%. Challenge to light/dark conditions lasted 10 min each, twice repeated.^[ [52] ^] Similarly, the data were recorded as the distance traveled (mm) by larvae when exposed to alternating lightning. All experiments were repeated three times, and data pooled. For statistical analysis and figure generation, GraphPad Prism 9.3.1 version (San Diego, CA, USA) was employed, and Grubbs test was applied to identify outliers. Shapiro‐Wilk test was then employed to assess whether data are normally distributed. Moreover, nonparametric ANOVA, Kruskal–Wallis, or Friedman (for repeated measures) test was used to analyze data, with statistical significance level set at p < 0.05. Data are presented as median or median + individual values.

5‐HT2C receptor = biological target: T1, 5‐HT2C receptor (Rattus norvegicus, UniProt P08909); experiment: 5‐HT2C competition binding assay ([3H]mesulergine, frontal cortex membranes); conditions: 5 nM [3H]mesulergine; for pKi: 95% CI in brackets, read-out: 5‐HT2C Ki (95% CI); for Ki: read-out: 5‐HT2C pKi (converted)
T1 construct: 10 μM pargyline and 160μg of the frontal cortex membrane suspension; from tissue; host or cells: rat (Sprague-Dawley) frontal cortex membranes
T1 sequence (P08909 33-460): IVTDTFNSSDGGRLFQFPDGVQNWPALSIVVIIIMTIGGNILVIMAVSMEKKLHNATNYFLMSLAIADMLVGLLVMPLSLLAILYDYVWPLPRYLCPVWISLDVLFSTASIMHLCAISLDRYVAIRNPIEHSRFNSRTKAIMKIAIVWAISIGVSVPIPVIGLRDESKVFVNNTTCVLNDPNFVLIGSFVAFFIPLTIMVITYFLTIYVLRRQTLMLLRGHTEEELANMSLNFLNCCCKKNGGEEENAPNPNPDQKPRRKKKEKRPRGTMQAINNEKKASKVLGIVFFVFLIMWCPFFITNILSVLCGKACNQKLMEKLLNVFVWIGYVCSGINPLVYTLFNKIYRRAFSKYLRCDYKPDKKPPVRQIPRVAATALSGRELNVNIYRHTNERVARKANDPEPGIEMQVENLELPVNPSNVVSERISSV
Protocol: Sprague‐Dawley rats were sacrificed by isoflurane overdose. Brains were rapidly removed and placed on ice. Hippocampi (for the 5‐HT1A assay) and frontal cortices (for the 5‐HT2A and 5‐HT2C assays) were dissected on a Petri dish. The tissue from 10 rats was homogenized in 30 vol. homogenization buffer (50 mM Tris–HCl, […], 1 mM EDTA, 1 mM dithiothreitol) with a handheld Teflon‐glass homogenizer. The homogenate was centrifuged at 48,000 × g at 4 °C for 15 min. The pellet was suspended and homogenized in the homogenization buffer and incubated for 10 min. at 36 °C. The centrifugation and suspension steps were repeated twice. The final pellet was homogenized in 5 vol. 50 mM Tris–HCl, pH = 7.4 buffer and stored at −80 °C for no longer than 6 months. […] For the 5‐HT2C assay, compounds were incubated in duplicate with 5 nM [^3H]mesulergine (specific activity: 80.2 Ci mmol^−1, Revvity, MA, USA) for 60 min. at 36 °C in a 50 mM Tris‐HCl (pH 7.4) buffer, supplemented with 5 mM MgCl2, 140 mM NaCl, 1 mM DTT, 1 mM CaCl2, 10 μM pargyline and 160μg of the frontal cortex membrane suspension. Non‐specific binding was determined with 10μM serotonin. The final DMSO concentration in the assay was 5%. After incubation, the reaction mixture was deposited onto Unifilter GF/C plates (Revvity, MA, USA) presoaked in 0.4% PEI (or 0.4% PEI and 0.5% Triton X‐100 for the 5‐HT2C assay) for 1 h with the FilterMate‐96 Harvester (Revvity, MA, USA). Then, each well was washed with 2 mL of 50 mM Tris–HCl (pH 7.4) buffer to separate bound ligands from free and the plates were left to dry overnight. Then, 35μl of Microscint‐20 scintillation fluid (Revvity, MA, USA) was added to each filter well and left to equilibrate for 2h. Filter‐bound radioactivity was counted in a MicroBeta2 LumiJet scintillation counter (Revvity, MA, USA). Binding curves were fitted with one site non‐linear regression. Binding affinity (pKi and Ki) for each compound was calculated from the […] values with the Cheng‐Prusoff equation from two separate experiments.

O=C(NCCCN1CCN(c2ccccc2C2=NCCS2)CC1)c1ccccn1 [FG‐1, N‐(3‐(4‐(2‐(4,5‐dihydrothiazol‐2‐yl) phenyl) piperazin‐1‐yl) propyl) picolinamide]
basic locomotor activity (total distance traveled) (larval zebrafish): decreased
pKi (5‐HT2C receptor): 5.16

O=C(NCCCN1CCN(c2cccc(C3=NCCS3)c2)CC1)c1ccccn1 [FG‐2, N‐(3‐(4‐(3‐(4,5‐dihydrothiazol‐2‐yl) phenyl) piperazin‐1‐yl) propyl) picolinamide]
pKi (5‐HT2C receptor): 6.09
Ki (5‐HT2C receptor): 832 nM

O=C(NCCCN1CCN(c2ccccc2C2=NCCS2)CC1)c1ccncc1 [FG‐4, N‐(3‐(4‐(2‐(4,5‐dihydrothiazol‐2‐yl) phenyl) piperazin‐1‐yl) propyl) isonicotinamide]
basic locomotor activity (total distance traveled) (larval zebrafish): slightly decreased larval activity
pKi (5‐HT2C receptor): 5.14

O=C(NCCCN1CCN(c2cccc(C3=NCCS3)c2)CC1)c1ccncc1 [FG‐5, N‐(3‐(4‐(3‐(4,5‐dihydrothiazol‐2‐yl) phenyl) piperazin‐1‐yl) propyl) isonicotinamide]
pKi (5‐HT2C receptor): 4.90

O=C(NCCCN1CCN(c2ccc(C3=NCCS3)cc2)CC1)c1ccncc1 [FG‐6, N‐(3‐(4‐(4‐(4,5‐dihydrothiazol‐2‐yl) phenyl) piperazin‐1‐yl) propyl) isonicotinamide]
basic locomotor activity (total distance traveled) (larval zebrafish): slightly decreased larval activity
pKi (5‐HT2C receptor): 5.66
Ki (5‐HT2C receptor): 2240 nM

O=C1C2C3C=CC(C3)C2C(=O)N1OCCCN1CCN(c2ccccc2C2=NCCS2)CC1 (centres unmarked) [FG‐7, 2‐(3‐(4‐(2‐(4,5‐dihydrothiazol‐2‐yl) phenyl) piperazin‐1‐yl) propoxy)‐3a,4,7,7a‐tetrahydro‐1 H‐4,7‐methanoisoindole‐1,3(2 H)‐dione]
basic locomotor activity (total distance traveled) (larval zebrafish): slightly decreased larval activity
pKi (5‐HT2C receptor): 4.09

O=C1C2C3C=CC(C3)C2C(=O)N1OCCCN1CCN(c2cccc(C3=NCCS3)c2)CC1 (centres unmarked) [FG‐8, 2‐(3‐(4‐(3‐(4,5‐dihydrothiazol‐2‐yl) phenyl) piperazin‐1‐yl) propoxy)‐3a,4,7,7a‐tetrahydro‐1H‐4,7‐methanoisoindole‐1,3(2H)‐dione]
basic locomotor activity (total distance traveled) (larval zebrafish): slightly decreased larval activity
pKi (5‐HT2C receptor): 7.34
Ki (5‐HT2C receptor): 46.8 nM

O=C(NCCCN1CCN(c2ccc(C3=NCCS3)cc2)CC1)C1CC2C=CC1C2 (stereo not drawn) [FG‐18, Endo‐ N‐(3‐(4‐(4‐(4,5‐dihydrothiazol‐2‐yl)phenyl)piperazin‐1‐yl)propyl) bicyclo[2.2.1]hept‐5‐ene‐2‐carboxamide]
basic locomotor activity (total distance traveled) (larval zebrafish): decreased
pKi (5‐HT2C receptor): 7.77
